Source: ChEMBL document CHEMBL5113486, “Hit-to-lead optimization of novel phenyl imidazole carboxamides that are active against Leishmania donovani” (Eur J Med Chem, 2022)
In brackets after ≈: the same amount, converted by molar mass.

Key:
[1] = Cytotoxicity against human HepG2 cells assessed as cell growth inhibition at 100 uM; format: toxicity, cell-based; conditions: read-out: Activity
Leishmania donovani [2] = test: Antileishmanial activity against Leishmania donovani infected in human THP-1 cells assessed as growth inhibition at 100 uM by intramacrophage assay; format: functional; parameters: scale not given: the % may be the effect or the level left
[3] = Cytotoxicity against human THP-1 cells assessed as cell growth inhibition; format: toxicity, cell-based
[4] = Selectivity index, ratio of CC50 for cytotoxicity against human THP-1 cells to IC50 for antileishmanial activity against Leishmania donovani infected in human THP-1 cells; format: toxicity, cell-based; conditions: read-out: Ratio CC50/IC50
Leishmania donovani [5] = test: Antileishmanial activity against Leishmania donovani infected in human THP-1 cells assessed as growth inhibition by intramacrophage assay; format: functional, organism-based
Leishmania donovani [6] = test: Antileishmanial activity against Leishmania donovani axenic amastigotes assessed as growth inhibition by fluorescence intensity readout assay; format: functional, organism-based
[7] = Lipophilicity, log P of the compound; format: physicochemical; conditions: octanol/water
[8] = Cytotoxicity against human HepG2 cells assessed as cell growth inhibition; format: toxicity, cell-based
[9] = Metabolic stability in human liver microsomes assessed as half-life; format: ADME, Microsome
[10] = Metabolic stability in human liver microsomes assessed as intrinsic clearance measured per mg protein; format: ADME, Microsome; conditions: read-out: CLH
[11] = Metabolic stability in mouse liver microsomes assessed as half life measured at 2 to 5 mins; format: ADME, Microsome; conditions: time 2-5 min
[12] = Kinetic solubility of the compound at pH 6.5 by nephelometry; format: physicochemical; conditions: buffer, read-out: Kinetic_solubility
[13] = Kinetic solubility of the compound at pH 2.0 by nephelometry; format: physicochemical; conditions: buffer, read-out: Kinetic_solubility
[14] = Metabolic stability in mouse liver microsomes assessed as intrinsic clearance measured per mg protein at 2 to 5 mins; format: ADME, Microsome; conditions: time 2-5 min, read-out: CLH
[15] = Solubility of the compound in DMSO; format: physicochemical
[16] = Metabolic stability in mouse liver microsomes assessed as half life; format: ADME, Microsome
[17] = Metabolic stability in mouse liver microsomes assessed as intrinsic clearance measured per mg protein; format: ADME, Microsome; conditions: read-out: CLH
[18] = Solubility of the compound upto 800 uM; format: physicochemical
HepG2 [19] = test: (§1) Cytotoxicity against human HepG2 cells assessed as inhibition of cell growth under glucose containing medium by crabtree effect assay; format: toxicity, cell-based; conditions: hepg2
[20] = Drug degradation in human liver microsomes; format: ADME, Microsome; conditions: read-out: Drug degradation
HepG2 [21] = test: Mitotoxicity in human HepG2 cells assessed as reduction in metabolic activity under galactose containing medium by crabtree effect assay; format: toxicity, cell-based
HepG2 [22] = test: Mitotoxicity in human HepG2 cells assessed as reduction in metabolic activity under glucose containing medium by crabtree effect assay; format: toxicity, cell-based
HepG2 [23] = test: Cytotoxicity against human HepG2 cells assessed as inhibition of cell growth under galactose containing medium by crabtree effect assay; format: toxicity, cell-based
[24] = as §1; format: toxicity, cell-based; conditions: HepG2 cells
[25] = Stability in mouse liver microsomes assessed as parent compound remaining measured at 2 mins; format: ADME, Microsome

Row | SMILES | inhibition at 100 µM [1] [%] | Activity (Leishmania donovani [2]) [%] | CC50 [3] [µM] | selectivity ratio [4] | IC50 (Leishmania donovani [5]) [µM] | also measured
1 | COc1ccc(-c2cnc(NC(=O)c3cccc(C#N)c3)n2C)cc1 | < 50 | <50 | > 100 | > 1 | > 100 | –
2 | COc1ccc(-c2cnc(NC(=O)c3cc(-c4ccccn4)n[nH]3)n2C)cc1 | < 50 | – | ≥ 50 | > 19 | – | IC50 (Leishmania donovani [6]): 4 µM; logP [7]: 3.2; CC50 [8]: 100 µM
3 | Cn1c(-c2ccccc2F)cnc1NC(=O)c1ccc(F)cc1 | < 50 | <50 | > 100 | > 1 | > 100 | –
4 | O=C(Nc1ncc(-c2ccccc2)o1)c1ccc(F)cc1 | – | – | 17 | 15 | 1.1 | half-life [9]: 19 min; microsomal CLint [10]: 90 µL/min/mg; half-life [11]: 5 min; solubility kinetic [12]: 6.3 µg/mL (≈ 22.3 µM); solubility kinetic [13]: 25 µg/mL (≈ 88.6 µM); microsomal CLint [14]: 352 µL/min/mg
5 | COc1ccc(-c2cnc(NC(=O)c3ccccc3F)n2C)cc1 | < 50 | <50 | > 100 | > 1 | > 100 | –
6 | COc1ccc(-c2cnc(NC(=O)c3cccc(F)c3)n2C)cc1 | < 50 | <50 | > 100 | – | > 100 | –
7 | CCCC(=O)Nc1ncc(-c2ccc(OC)cc2)n1C | < 50 | <50 | > 100 | > 1 | > 100 | –
8 | COc1ccc(-c2cnc(NC(=O)c3cccc(C)c3)n2C)cc1 | < 50 | – | > 100 | > 1 | > 100 | solubility [15]: Insoluble
9 | COc1ccc(-c2cnc(NC(=O)c3ccc(F)cc3)n2C)cc1 | < 50 | – | ≥ 50 | > 8.3 | – | half-life [9]: 59 min; IC50 (Leishmania donovani [6]): 3.2 µM; microsomal CLint [10]: 30 µL/min/mg; solubility kinetic [12]: < 1.6 µg/mL; solubility kinetic [13]: 12.5 µg/mL (≈ 38.4 µM); logP [7]: 3.6; half-life [16]: 4 min; microsomal CLint [17]: 396 µL/min/mg; CC50 [8]: 100 µM
10 | Cn1c(-c2ccc(F)cc2)cnc1NC(=O)c1ccc(F)cc1 | < 50 | <50 | > 100 | > 1 | > 100 | –
11 | COc1ccc(-c2cnc(NC(=O)c3cnco3)n2C)cc1 | < 50 | <50 | > 100 | > 1 | > 100 | –
12 | COc1ccc(-c2noc(NC(=O)c3ccc(F)cc3)c2C)cc1 | < 50 | <50 | > 100 | > 1 | > 100 | –
13 | COc1ccc(-c2cnc(NC(=O)Cc3ccccc3)n2C)cc1 | < 50 | – | > 100 | > 4 | 25 | –
14 | CCCCn1c(-c2ccc(OC)cc2)cnc1NC(=O)c1ccc(F)cc1 | < 50 | <50 | > 100 | > 5.6 | > 100 | –
15 | COc1ccc2c(c1)nc(NC(=O)c1ccc(F)cc1)n2C | < 50 | – | > 100 | > 2.6 | 38 | –
16 | Cn1c(-c2ccccc2)cnc1NC(=O)C1CCCCC1 | < 50 | – | > 100 | > 2.2 | 46 | –
17 | COc1ccc(-c2cnc(NC(=O)c3cnc[nH]3)n2C)cc1 | < 50 | <50 | > 100 | > 1 | > 100 | –
18 | Cn1c(-c2ccccc2)cnc1NC(=O)c1ccc(F)cc1 | < 50 | – | > 100 | > 2.8 | 36 | solubility kinetic [12]: 25 µg/mL (≈ 84.7 µM); solubility kinetic [13]: 25 µg/mL (≈ 84.7 µM)
19 | COc1ccc(-c2cnc(NC(=O)c3ccno3)n2C)cc1 | < 50 | – | > 100 | > 1 | > 100 | –
20 | COc1ccc(-c2nc3ncc(-c4ccc(F)cc4)cc3[nH]2)cc1 | < 50 | <50 | > 100 | > 1 | > 100 | solubility [18]: Insoluble

Row | SMILES | inhibition at 100 µM [1] [%] | Activity (Leishmania donovani [2]) [%] | CC50 [3] [µM] | selectivity ratio [4] | IC50 (Leishmania donovani [5]) [µM] | also measured
21 | COc1ccc(-c2cnc(NC(=O)c3ccccc3)n2C)cc1 | < 50 | – | > 100 | > 3.6 | 28 | solubility [15]: Insoluble
22 | Cc1ccccc1C(=O)Nc1ncc(-c2ccccc2)n1C | < 50 | – | > 100 | > 1.8 | 57 | –
23 | COc1ccc(-c2cnc3nc(-c4ccc(F)cc4)[nH]c3c2)cc1 | < 50 | <50 | > 100 | > 1 | > 100 | solubility [18]: Insoluble
24 | COc1ccc(-c2cnc(NC(=O)C3CCCCC3)n2C)cc1 | < 50 | <50 | > 100 | > 1 | > 100 | solubility [15]: Insoluble
25 | COc1ccc(-c2cnc(NC(=O)C3CCNCC3)n2C)cc1 | < 50 | <50 | > 100 | > 1 | > 100 | –
26 | Cn1c(-c2ccc(Cl)cc2)cnc1NC(=O)c1ncc[nH]1 | – | – | 52 | 100 | 0.52 | half-life [9]: > 255 min; Activity (HepG2 [19]): Non-Toxic; metabolised [20]: < 15%; Activity (HepG2 [21]): Non-Toxic; microsomal CLint [10]: < 7 µL/min/mg; Activity (HepG2 [22]): Non-Toxic; solubility kinetic [12]: 25 µg/mL (≈ 82.9 µM); solubility kinetic [13]: 50 µg/mL (≈ 166 µM); half-life [16]: 43 min; microsomal CLint [17]: 41 µL/min/mg; Activity (HepG2 [23]): Non-Toxic
27 | COc1ccc(-c2cnc(NC(=O)c3ccc(C#N)cc3)n2C)cc1 | < 50 | <50 | > 100 | > 1 | > 100 | –
28 | COc1cccc(-c2cnc(NC(=O)c3ncc[nH]3)n2C)c1 | < 50 | – | > 100 | > 12 | 8.1 | –
29 | COc1ccc(-c2cnc(NC(=O)c3ccccc3C)n2C)cc1 | < 50 | – | > 100 | > 1.5 | 65 | –
30 | COc1ccc(-c2cnc(NC(=O)c3ccco3)n2C)cc1 | < 50 | – | > 100 | > 4.3 | 23 | –
31 | Cn1c(-c2cccc(Cl)c2)cnc1NC(=O)c1ncc[nH]1 | – | – | 55 | 74 | 0.74 | half-life [9]: 229 min; CC50 [24]: 17 µM; metabolised [20]: < 15%; Activity (HepG2 [21]): Non-Toxic; microsomal CLint [10]: 8 µL/min/mg; Activity (HepG2 [22]): Non-Toxic; solubility kinetic [12]: 3.1 µg/mL (≈ 10.3 µM); solubility kinetic [13]: 12.5 µg/mL (≈ 41.4 µM); half-life [16]: 82 min; microsomal CLint [17]: 21 µL/min/mg; Activity (HepG2 [23]): Non-Toxic
32 | COc1ccc(-c2cnc(NC(=O)c3ncc[nH]3)n2C)cc1 | < 50 | <50 | > 100 | > 9.1 | 11 | half-life [9]: > 255 min; metabolised [20]: < 15%; microsomal CLint [10]: < 7 µL/min/mg; solubility kinetic [12]: 6.3 µg/mL (≈ 21.2 µM); solubility kinetic [13]: > 100 µg/mL; half-life [16]: 3 min; microsomal CLint [17]: 511 µL/min/mg
33 | COc1ccc(-c2cnc(NC(=O)c3ccc([N+](=O)[O-])cc3)n2C)cc1 | < 50 | <50 | > 100 | > 1 | > 100 | –
34 | COc1ccc(-c2cnc(NC(=O)c3ccccc3C#N)n2C)cc1 | < 50 | – | > 100 | > 7.1 | 14 | –
35 | COc1ccc(-c2ccc(NC(=O)c3ccc(F)cc3)nc2)cc1 | < 50 | <50 | > 100 | > 1 | > 100 | solubility [15]: Insoluble
36 | COc1ccc(-c2cnc(NC(=O)c3cccnc3)n2C)cc1 | < 50 | – | > 100 | > 1 | > 100 | –
37 | COc1ccc(-c2cnc(NC(=O)c3ccc(Br)cc3)n2C)cc1 | < 50 | – | > 100 | > 1 | > 100 | –
38 | COc1ccc(-c2cnc(NC(C)=O)n2C)cc1 | < 50 | <50 | > 100 | > 1 | > 100 | –
39 | COc1ccc(-c2cnc(NC(=O)c3ccn[nH]3)n2C)cc1 | < 50 | <50 | > 100 | > 1 | > 100 | –
40 | Cn1c(-c2ccccc2)cnc1NC(=O)c1ncc[nH]1 | < 50 | – | > 100 | > 16 | 6.4 | half-life [9]: 88 min; microsomal CLint [10]: 20 µL/min/mg; half-life [16]: < 2 min; Stability [25]: Unstable; microsomal CLint [17]: > 866 µL/min/mg
